Data as given in patent publication US11203601B2, “Tricyclic compounds as glycogen synthase kinase 3 (GSK3) inhibitors and uses thereof” (The Broad Institute, Inc., priority 2017, dated 2021).

Columns and labels:
Assay in all cases: Carna kinome panel
Type in all cases: biochemical
[1] = molecular target: JAK2 (Homo sapiens (Human), UniProt O60674); details: read-out: % Inhibition at 10 μM of the test compound
[2] = molecular target: CaMK2δ (Homo sapiens (Human), UniProt Q13557); details: read-out: % Inhibition at 10 μM of the test compound
[3] = molecular target: AXL (Homo sapiens (Human), UniProt P30530); details: read-out: % Inhibition at 10 μM of the test compound
[4] = molecular target: PASK (Homo sapiens (Human), UniProt Q96RG2); details: read-out: % Inhibition at 10 μM of the test compound
[5] = molecular target: TEC (Homo sapiens (Human), UniProt P42680); details: read-out: % Inhibition at 10 μM of the test compound
[6] = molecular target: ARG (Homo sapiens (Human), UniProt P42684); details: read-out: % Inhibition at 10 μM of the test compound
[7] = molecular target: MGC42105 (Homo sapiens (Human), UniProt Q8IY84); details: read-out: % Inhibition at 10 μM of the test compound
[8] = molecular target: RET(S891A) (Homo sapiens (Human), UniProt P07949, S891A); details: read-out: % Inhibition at 10 μM of the test compound
[9] = molecular target: MSSK1 (Homo sapiens (Human), UniProt Q9UPE1); details: read-out: % Inhibition at 10 μM of the test compound
[10] = system: MAP3K1_Cascade
Protocol: (§1) Briefly, a selection of compounds was screened against a panel of kinases at a single concentration of 10 μM. […] This was completed using one of two assays, depending on the kinase being examined: 1) IMAP Assay. A solution of 4× inhibitor, 4× substrate/ATP/metal solution and 2× kinase solution was prepared with assay buffer (20 mM HEPES, 0.01% Tween-20, 2 mM DTT, pH 7.4) and mixed, then incubated in 384-well black plates for 1 hour at room temperature. The IMAP binding reagent (IMAP Screening Express kit; Molecular Devices) was added to each well and incubated for 30 minutes. […] 2) Off-Chip Mobility Shift Assay (MSA). A solution of 4× inhibitor, 4× substrate/ATP/metal solution and 2× kinase solution was prepared with assay buffer (20 mM HEPES, 0.01% Triton X-100, 2 mM DTT, pH 7.5) and mixed, then incubated in 384-well plates for 1 or 5 hours depending on the kinase, at room temperature. Termination buffer (QuickScout Screening assist MSA; Carna Biosciences) was added to each well. The entire reaction mixture was then applied to a LabChip3000 system (Caliper Life Science), and the product and substrate peptide peaks were separated and quantified. […] The entire reaction mixture was then applied to a LabChip3000 system (Caliper Life Science), and the product and substrate peptide peaks were separated and quantified.

[11] = molecular target: CK1γ3 (Homo sapiens (Human), UniProt Q9Y6M4); details: read-out: % Inhibition at 10 μM of the test compound
[12] = molecular target: CK2α1/β (Homo sapiens (Human), UniProt P68400); details: read-out: % Inhibition at 10 μM of the test compound
Protocol: as §1

[13] = molecular target: MAP3K4_Cascade (Homo sapiens (Human), UniProt Q9Y6R4); details: read-out: % Inhibition at 10 μM of the test compound
[14] = molecular target: MAP2K6_Cascade (Homo sapiens (Human), UniProt P52564); details: read-out: % Inhibition at 10 μM of the test compound
[15] = molecular target: RSK2 (Homo sapiens (Human), UniProt P51812); details: read-out: % Inhibition at 10 μM of the test compound
[16] = molecular target: FGFR3(K650M) (Homo sapiens (Human), UniProt P22607, K650M); details: read-out: % Inhibition at 10 μM of the test compound
[17] = molecular target: SRPK2 (Homo sapiens (Human), UniProt P78362); details: read-out: % Inhibition at 10 μM of the test compound
[18] = molecular target: p38δ (Homo sapiens (Human), UniProt O15264); details: read-out: % Inhibition at 10 μM of the test compound
[19] = molecular target: HIPK4 (Homo sapiens (Human), UniProt Q8NE63); details: read-out: % Inhibition at 10 μM of the test compound
[20] = molecular target: FLT3 (Homo sapiens (Human), UniProt P36888); details: read-out: % Inhibition at 10 μM of the test compound
[21] = molecular target: EPHA2 (Homo sapiens (Human), UniProt P29317); details: read-out: % Inhibition at 10 μM of the test compound
[22] = molecular target: CRIK (Homo sapiens (Human), UniProt O14578); details: read-out: % Inhibition at 10 μM of the test compound
[23] = molecular target: p70S6K (Homo sapiens (Human), UniProt P23443); details: read-out: % Inhibition at 10 μM of the test compound
[24] = molecular target: MST3 (Homo sapiens (Human), UniProt Q9Y6E0); details: read-out: % Inhibition at 10 μM of the test compound
[25] = molecular target: CSK (Homo sapiens (Human), UniProt P41240); details: read-out: % Inhibition at 10 μM of the test compound
[26] = molecular target: p38α (Homo sapiens (Human), UniProt Q16539); details: read-out: % Inhibition at 10 μM of the test compound
[27] = molecular target: CAMK1α (Homo sapiens (Human), UniProt Q14012); details: read-out: % Inhibition at 10 μM of the test compound
[28] = molecular target: CHK2 (Homo sapiens (Human), UniProt O96017); details: read-out: % Inhibition at 10 μM of the test compound
[29] = molecular target: AurC (Homo sapiens (Human), UniProt Q9UQB9); details: read-out: % Inhibition at 10 μM of the test compound
[30] = molecular target: EPHB4 (Homo sapiens (Human), UniProt P54760); details: read-out: % Inhibition at 10 μM of the test compound
[31] = molecular target: FGFR3 (Homo sapiens (Human), UniProt P22607); details: read-out: % Inhibition at 10 μM of the test compound
[32] = molecular target: CaMK2β (Homo sapiens (Human), UniProt Q13554); details: read-out: % Inhibition at 10 μM of the test compound
[33] = molecular target: EPHB1 (Homo sapiens (Human), UniProt P54762); details: read-out: % Inhibition at 10 μM of the test compound
[34] = molecular target: PKD1 (Homo sapiens (Human), UniProt Q15139); details: read-out: % Inhibition at 10 μM of the test compound
[35] = molecular target: ALK(L1196M) (Homo sapiens (Human), UniProt Q9UM73, L1196M); details: read-out: % Inhibition at 10 μM of the test compound
[36] = molecular target: PDGFRα (Homo sapiens (Human), UniProt P16234); details: read-out: % Inhibition at 10 μM of the test compound
[37] = molecular target: FGFR4 (Homo sapiens (Human), UniProt P22455); details: read-out: % Inhibition at 10 μM of the test compound
[38] = molecular target: MAP2K7_Cascade (Homo sapiens (Human), UniProt O14733); details: read-out: % Inhibition at 10 μM of the test compound
[39] = molecular target: MET(D1228H) (Homo sapiens (Human), UniProt P08581, D1228H); details: read-out: % Inhibition at 10 μM of the test compound
[40] = molecular target: QIK (Homo sapiens (Human), UniProt Q9H0K1); details: read-out: % Inhibition at 10 μM of the test compound
[41] = molecular target: DYRK3 (Homo sapiens (Human), UniProt O43781); details: read-out: % Inhibition at 10 μM of the test compound
Sequence of DYRK3 (O43781 whole entry): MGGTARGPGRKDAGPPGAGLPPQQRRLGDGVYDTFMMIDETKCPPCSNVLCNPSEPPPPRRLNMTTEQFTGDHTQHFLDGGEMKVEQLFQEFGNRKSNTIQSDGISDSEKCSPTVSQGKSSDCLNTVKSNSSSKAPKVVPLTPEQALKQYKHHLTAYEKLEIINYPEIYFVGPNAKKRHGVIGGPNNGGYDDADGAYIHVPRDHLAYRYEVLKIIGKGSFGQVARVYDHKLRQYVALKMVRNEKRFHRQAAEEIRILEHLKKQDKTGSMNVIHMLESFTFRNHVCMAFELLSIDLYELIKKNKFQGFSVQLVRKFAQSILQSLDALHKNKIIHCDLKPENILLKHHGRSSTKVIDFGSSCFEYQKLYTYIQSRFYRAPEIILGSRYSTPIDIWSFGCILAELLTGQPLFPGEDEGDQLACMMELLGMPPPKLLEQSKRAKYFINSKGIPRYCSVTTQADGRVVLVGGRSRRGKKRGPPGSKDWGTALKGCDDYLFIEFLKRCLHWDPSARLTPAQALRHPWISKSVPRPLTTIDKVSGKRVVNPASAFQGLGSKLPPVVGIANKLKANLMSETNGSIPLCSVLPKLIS

Sequence of HIPK4 (Q8NE63 whole entry): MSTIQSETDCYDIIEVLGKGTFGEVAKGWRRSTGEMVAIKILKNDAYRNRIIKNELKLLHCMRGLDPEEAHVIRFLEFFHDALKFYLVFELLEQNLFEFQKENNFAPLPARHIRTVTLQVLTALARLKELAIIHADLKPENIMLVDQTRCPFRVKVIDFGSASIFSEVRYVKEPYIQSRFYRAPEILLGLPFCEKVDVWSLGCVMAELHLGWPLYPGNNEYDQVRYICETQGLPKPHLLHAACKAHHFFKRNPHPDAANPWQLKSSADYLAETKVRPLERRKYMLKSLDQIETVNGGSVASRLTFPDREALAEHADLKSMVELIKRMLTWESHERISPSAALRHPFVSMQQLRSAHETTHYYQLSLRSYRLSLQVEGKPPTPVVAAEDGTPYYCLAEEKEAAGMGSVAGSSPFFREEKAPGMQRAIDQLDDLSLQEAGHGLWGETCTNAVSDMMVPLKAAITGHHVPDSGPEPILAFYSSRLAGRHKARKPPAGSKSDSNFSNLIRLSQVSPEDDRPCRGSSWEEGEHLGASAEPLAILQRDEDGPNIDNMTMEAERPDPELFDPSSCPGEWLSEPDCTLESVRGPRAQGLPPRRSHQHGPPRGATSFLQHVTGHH
Sequence of QIK (Q9H0K1 whole entry): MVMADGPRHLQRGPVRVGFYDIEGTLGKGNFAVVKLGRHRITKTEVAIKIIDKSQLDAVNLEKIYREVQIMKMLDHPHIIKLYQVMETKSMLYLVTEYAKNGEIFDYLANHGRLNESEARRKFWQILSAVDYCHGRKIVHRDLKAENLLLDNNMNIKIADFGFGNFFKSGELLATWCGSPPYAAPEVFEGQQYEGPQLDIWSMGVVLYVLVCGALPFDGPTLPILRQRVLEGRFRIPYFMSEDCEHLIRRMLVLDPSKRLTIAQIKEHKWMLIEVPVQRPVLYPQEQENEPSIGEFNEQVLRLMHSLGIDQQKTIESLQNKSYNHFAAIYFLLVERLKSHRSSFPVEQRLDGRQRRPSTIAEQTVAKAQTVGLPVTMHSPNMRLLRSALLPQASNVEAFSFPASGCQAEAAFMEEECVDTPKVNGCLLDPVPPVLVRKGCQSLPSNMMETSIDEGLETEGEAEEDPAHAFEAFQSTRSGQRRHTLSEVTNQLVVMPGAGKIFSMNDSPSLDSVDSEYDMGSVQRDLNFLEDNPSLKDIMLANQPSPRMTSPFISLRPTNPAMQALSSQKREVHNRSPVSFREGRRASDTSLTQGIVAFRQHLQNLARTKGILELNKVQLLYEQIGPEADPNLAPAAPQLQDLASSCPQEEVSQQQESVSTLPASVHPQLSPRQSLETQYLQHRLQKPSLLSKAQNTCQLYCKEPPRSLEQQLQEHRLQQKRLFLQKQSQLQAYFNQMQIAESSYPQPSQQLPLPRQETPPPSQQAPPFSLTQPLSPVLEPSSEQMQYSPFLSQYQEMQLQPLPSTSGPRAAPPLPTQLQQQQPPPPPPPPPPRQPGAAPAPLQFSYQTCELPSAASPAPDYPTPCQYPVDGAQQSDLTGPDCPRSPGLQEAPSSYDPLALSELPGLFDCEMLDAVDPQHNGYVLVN
Sequence of CSK (P41240 whole entry): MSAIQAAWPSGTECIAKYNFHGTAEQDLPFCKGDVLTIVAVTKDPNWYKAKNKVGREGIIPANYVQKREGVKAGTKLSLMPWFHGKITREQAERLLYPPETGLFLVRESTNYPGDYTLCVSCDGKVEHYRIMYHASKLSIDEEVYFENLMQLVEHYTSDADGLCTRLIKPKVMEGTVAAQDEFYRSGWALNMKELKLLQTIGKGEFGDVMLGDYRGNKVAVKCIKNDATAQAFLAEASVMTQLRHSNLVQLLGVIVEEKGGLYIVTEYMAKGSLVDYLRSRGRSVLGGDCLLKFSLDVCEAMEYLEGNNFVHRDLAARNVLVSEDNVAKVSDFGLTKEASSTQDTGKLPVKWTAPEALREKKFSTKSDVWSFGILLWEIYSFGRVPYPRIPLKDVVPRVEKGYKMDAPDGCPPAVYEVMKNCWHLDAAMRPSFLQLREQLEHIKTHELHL
Sequence of MAP3K4_Cascade (Q9Y6R4 whole entry): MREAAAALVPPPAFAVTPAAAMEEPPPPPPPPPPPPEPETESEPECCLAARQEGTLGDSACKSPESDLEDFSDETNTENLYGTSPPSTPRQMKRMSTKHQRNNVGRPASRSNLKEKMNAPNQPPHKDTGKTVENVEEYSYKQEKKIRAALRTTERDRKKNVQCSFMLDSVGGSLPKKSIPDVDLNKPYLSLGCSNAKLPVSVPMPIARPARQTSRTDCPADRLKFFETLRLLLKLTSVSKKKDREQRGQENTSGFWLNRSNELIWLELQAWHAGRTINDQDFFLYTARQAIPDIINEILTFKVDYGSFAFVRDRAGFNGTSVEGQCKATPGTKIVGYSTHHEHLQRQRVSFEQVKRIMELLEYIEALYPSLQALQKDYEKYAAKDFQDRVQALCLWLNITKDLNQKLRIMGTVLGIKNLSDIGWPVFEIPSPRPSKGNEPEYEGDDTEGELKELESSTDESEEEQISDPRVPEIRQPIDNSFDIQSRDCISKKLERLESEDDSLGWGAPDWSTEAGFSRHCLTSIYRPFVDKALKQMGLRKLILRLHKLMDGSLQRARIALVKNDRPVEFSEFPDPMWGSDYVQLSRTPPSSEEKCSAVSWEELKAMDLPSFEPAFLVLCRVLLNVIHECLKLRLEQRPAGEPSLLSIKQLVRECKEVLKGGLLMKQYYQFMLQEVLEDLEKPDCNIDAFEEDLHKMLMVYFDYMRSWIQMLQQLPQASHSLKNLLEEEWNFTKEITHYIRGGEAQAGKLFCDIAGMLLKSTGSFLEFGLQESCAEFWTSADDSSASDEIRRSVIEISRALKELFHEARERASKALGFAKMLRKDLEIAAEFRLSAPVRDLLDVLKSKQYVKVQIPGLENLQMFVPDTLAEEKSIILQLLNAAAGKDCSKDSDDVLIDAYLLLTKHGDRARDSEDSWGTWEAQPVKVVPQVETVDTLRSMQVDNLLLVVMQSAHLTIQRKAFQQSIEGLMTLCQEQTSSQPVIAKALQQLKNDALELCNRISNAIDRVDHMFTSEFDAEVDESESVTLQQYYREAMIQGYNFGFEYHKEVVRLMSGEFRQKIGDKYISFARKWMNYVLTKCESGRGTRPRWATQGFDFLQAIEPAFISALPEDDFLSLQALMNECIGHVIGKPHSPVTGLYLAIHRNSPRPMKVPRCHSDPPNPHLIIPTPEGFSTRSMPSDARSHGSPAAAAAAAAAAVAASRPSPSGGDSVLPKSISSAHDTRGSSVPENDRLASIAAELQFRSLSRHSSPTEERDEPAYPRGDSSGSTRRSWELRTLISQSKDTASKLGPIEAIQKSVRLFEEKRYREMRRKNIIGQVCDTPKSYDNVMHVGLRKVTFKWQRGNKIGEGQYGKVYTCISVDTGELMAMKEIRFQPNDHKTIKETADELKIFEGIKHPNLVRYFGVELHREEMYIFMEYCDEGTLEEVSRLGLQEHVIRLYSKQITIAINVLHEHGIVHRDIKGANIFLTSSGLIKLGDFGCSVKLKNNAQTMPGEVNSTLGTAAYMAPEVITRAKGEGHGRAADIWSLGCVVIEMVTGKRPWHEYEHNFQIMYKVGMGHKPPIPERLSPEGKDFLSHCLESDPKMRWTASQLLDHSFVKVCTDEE
Sequence of MAP2K7_Cascade (O14733 whole entry): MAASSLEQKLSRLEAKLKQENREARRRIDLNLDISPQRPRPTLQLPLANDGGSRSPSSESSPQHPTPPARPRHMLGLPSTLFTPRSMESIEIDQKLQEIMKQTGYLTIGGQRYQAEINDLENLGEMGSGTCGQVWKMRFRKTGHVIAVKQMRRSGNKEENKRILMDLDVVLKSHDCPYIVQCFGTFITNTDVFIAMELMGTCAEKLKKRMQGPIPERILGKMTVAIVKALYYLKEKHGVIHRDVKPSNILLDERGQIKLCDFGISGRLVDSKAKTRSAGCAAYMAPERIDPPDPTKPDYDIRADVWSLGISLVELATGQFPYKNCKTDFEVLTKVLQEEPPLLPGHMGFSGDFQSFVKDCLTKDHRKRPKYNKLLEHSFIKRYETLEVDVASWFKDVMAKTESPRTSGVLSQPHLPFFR
Sequence of CK1γ3 (Q9Y6M4 whole entry): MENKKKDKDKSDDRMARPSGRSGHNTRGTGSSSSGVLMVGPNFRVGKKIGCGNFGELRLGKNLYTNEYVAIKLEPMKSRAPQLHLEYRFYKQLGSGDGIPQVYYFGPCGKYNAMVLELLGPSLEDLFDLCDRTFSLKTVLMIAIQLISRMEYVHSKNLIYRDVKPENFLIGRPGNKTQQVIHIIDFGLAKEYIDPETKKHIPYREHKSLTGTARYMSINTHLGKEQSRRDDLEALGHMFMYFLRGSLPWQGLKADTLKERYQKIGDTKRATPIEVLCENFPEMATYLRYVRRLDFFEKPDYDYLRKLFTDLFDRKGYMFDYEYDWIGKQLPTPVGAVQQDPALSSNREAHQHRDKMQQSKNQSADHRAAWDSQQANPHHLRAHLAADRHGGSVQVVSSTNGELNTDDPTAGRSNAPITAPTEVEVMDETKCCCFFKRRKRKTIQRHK

## CCC1(c2ccccc2)C2=C(CC(C)(C)CC2=O)Nc2ncsc21 (centres unmarked) [Compound 1, 9-Ethyl-6,6-dimethyl-9-phenyl-5,6,7,9-tetrahydrothiazolo[4,5-b]quinolin-8(4H)-one]
[1]
  inhibition at 10 µM: -0.9%
[2]
  inhibition at 10 µM: -8.6%
[3]
  inhibition at 10 µM: 6.5%
[4]
  inhibition at 10 µM: -5.2%
[5]
  inhibition at 10 µM: -9.1%
[6]
  inhibition at 10 µM: -0.6%
[7]
  inhibition at 10 µM: 4.3%
[8]
  inhibition at 10 µM: 1.4%
[9]
  inhibition at 10 µM: 1.2%
[10]
  % Inhibition at 10 μM of the test compound: −1.0%
[11]
  inhibition at 10 µM: 1.5%
[12]
  inhibition at 10 µM: -3.7%
[13]
  inhibition at 10 µM: 10.1%
[14]
  inhibition at 10 µM: 5.6%
[15]
  inhibition at 10 µM: 1.4%
[16]
  inhibition at 10 µM: -4%
[17]
  inhibition at 10 µM: 3.1%
[18]
  inhibition at 10 µM: 18%
[19]
  inhibition at 10 µM: -12.5%
[20]
  inhibition at 10 µM: 2.9%
[21]
  inhibition at 10 µM: -0.3%
[22]
  inhibition at 10 µM: 1.6%
[23]
  inhibition at 10 µM: 2.9%
[24]
  inhibition at 10 µM: 1.4%
[25]
  inhibition at 10 µM: 6.1%
[26]
  inhibition at 10 µM: 1.1%
[27]
  inhibition at 10 µM: -2.6%
[28]
  inhibition at 10 µM: 3.3%
[29]
  inhibition at 10 µM: 8.5%
[30]
  inhibition at 10 µM: 5.3%
[31]
  inhibition at 10 µM: 1.6%
[32]
  inhibition at 10 µM: 2.8%
[33]
  inhibition at 10 µM: -0.4%
[34]
  inhibition at 10 µM: 1%
[35]
  inhibition at 10 µM: -5.2%
[36]
  inhibition at 10 µM: -10.1%
[37]
  inhibition at 10 µM: 2.8%
[38]
  inhibition at 10 µM: 2.8%
[39]
  inhibition at 10 µM: -7.7%
[40]
  inhibition at 10 µM: 6.9%
[41]
  inhibition at 10 µM: 0.3%
